Patent publication US20220243230A1, “BIOCONVERSION OF 4-COUMARIC ACID TO RESVERATROL” (Conagen Inc., priority 2022, published 2022)

Tested on: yeast cultures
Experiment: effect of 4-coumaric acid at different concentrations on yeast cultures
Format: cell-based, S. cerevisiae
Conditions: strains CNFS109 and CNFS110, 48 hours, 30 °C, FIG. 1
Protocol: The strains of Example 1 were tested in microcultures with 500 mg/L of 4-coumaric acid fed 24 hours post inoculation. CNFS109 and CNFS110 were inoculated into 50 ml of synthetic drop out medium without uracil (Sigma-Aldrich, St. Louis, Missouri) and incubated overnight under shaking conditions. Saturated culture was dispensed into individual wells in 24 well plates that contained 2 ml of synthetic drop out medium without uracil. 4-coumaric acid dissolved in acidified ethanol (20 g/L stock, in ethanol : water : HCl=50:49:1) was added to each well, to form media having 4-coumaric concentrations of 0 mg/L, 100 mg/L, 500 mg/L, 1000 mg/L, and 2000 mg/L, respectively. All experiments were performed in triplicate. The cultures were incubated under shaking for 48 hours (250 rpm, 30 ° C.).
The bar graph of FIG. 1 illustrates the effect of 4-coumaric acid at different concentrations on yeast cultures. […] Due to the toxicity associated with high concentrations of 4-coumaric acid which inhibited yeast from growing and metabolizing, resveratrol bioconversion was only observed when 4-coumaric was added to the yeast culture at relatively lower concentrations (FIG. 2).

## O=C(O)/C=C/c1ccc(O)cc1 [4-coumaric acid]
1 g/L or 2 g/L added to the culture
  survival rate of yeast culture: declined
Concentration of up to 500 mg/L
  impact due to 4-coumaric acid toxicity on yeast cultures: little or no impact
